Consider seven molecules from paper PMC6935813, “Assessment of the Aromatase Inhibitory Activity of Ma-Huang-Tang (MHT) and Its Active Compounds” (Evidence-based Complementary and Alternative Medicine : eCAM, 2019).

What is called IC50 is the midpoint of a concentration-inhibition curve.

Test [1] concerns the target T1, aromatase (Homo sapiens, UniProt P11511).
T1 sequence (P11511 1-503): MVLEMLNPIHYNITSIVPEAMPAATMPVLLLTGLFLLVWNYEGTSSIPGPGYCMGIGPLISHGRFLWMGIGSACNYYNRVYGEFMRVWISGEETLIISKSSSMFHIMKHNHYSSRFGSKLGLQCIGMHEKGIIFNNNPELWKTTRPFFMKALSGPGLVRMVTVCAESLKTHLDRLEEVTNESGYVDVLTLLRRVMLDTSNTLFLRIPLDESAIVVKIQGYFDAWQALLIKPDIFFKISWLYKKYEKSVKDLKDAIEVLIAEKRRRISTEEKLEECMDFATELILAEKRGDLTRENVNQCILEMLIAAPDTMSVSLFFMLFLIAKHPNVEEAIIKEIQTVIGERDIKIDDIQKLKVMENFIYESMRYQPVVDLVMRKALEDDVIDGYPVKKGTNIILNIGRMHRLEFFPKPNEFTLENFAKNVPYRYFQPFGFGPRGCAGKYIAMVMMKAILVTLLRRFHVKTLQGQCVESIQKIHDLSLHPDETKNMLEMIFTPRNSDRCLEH
Kind of test: Cell-free fluorescence-based aromatase inhibition assay (DBF hydrolysis). It counts as biochemical. On the set-up: purchased Corning (Woburn, MA, USA). Particulars: DBF substrate.
Description: Supersomes human CYP19 was obtained from Corning (Woburn, MA, USA). Analytical-grade acetonitrile, methanol, and ultrapure water were purchased from J. T. Baker (Phillipsburg, NJ, USA). Trifluoroacetic acid was of analytical grade and was purchased from Sigma-Aldrich.
The inhibition of aromatase activity by MHT and each component was assessed by measuring the fluorescence intensity of fluorescein produced by the hydrolysis of DBF [20, 28]. […] A 100 μL mixture of aromatase and substrate (2 μM DBF, 40 pmol/mL aromatase, and 4 mg/mL albumin in 50 mM potassium phosphate, pH 7.4) was then added to the sample, and the resulting mixture was incubated for 30 min at 37°C in the dark. After the reaction, the sample was incubated with 150 μL of 2N NaOH for an additional 2 h at 37°C to remove impurities other than fluorescein. […] All experiments were performed three times at separate times.
The results are expressed as the means ± SEMs from multiple experiments. Paired Student's t-tests with Tukey's multiple comparison tests were performed to compare two groups using PRISM software (GraphPad, CA, USA). A p value <0.05 was considered to be statistically significant. Additionally, IC50 values were calculated by sigmoidal dose-response curve fitting (variable slope) using PRISM software.

Test [2] has as its target T1, aromatase. Description: Cell-based aromatase assay: estrone ELISA in KGN cells given androstenedione. The conditions noted are these: estrone level by ELISA; maximum con. 5 mM; read-out: Aromatase inhibition IC50 in KGN cells. Background: An ELISA detects its analyte on a solid surface through an enzyme-linked reagent.
Description: The human granulosa-like tumor cell line KGN was obtained from RIKEN BioResource Center (Ibaraki, JPN). The cells were grown in Dulbecco's modified Eagle's medium/Ham's F-12 nutrient mix (DMEM/F-12, Welgen, Daejeon, KOR) supplemented with 5% (v/v) fetal bovine serum (FBS) and 0.5% antibiotics (100 U/mL penicillin and 100 μg/mL streptomycin, Gibco BRL, NY, USA) in a humidified atmosphere of 5% CO2 at 37°C. Prior to treatment with MHT and its components in all the experiments, the cells were cultured for 24 h by switching to phenol-red free DMEM/H-12 medium (Welgen, Daejeon, KOR) with 5% (v/v) charcoal-stripped FBS (HyClone, Logan, UT, USA), and the samples were treated under the same conditions.
Cells (4 × 10^4 cells/mL) were placed on a 96-well tissue culture plate and incubated in DMEM/F-12 medium with 5% charcoal-stripped FBS (HyClone, Logan, UT, USA) overnight. After the addition of MHT or its components, the cells were incubated for 24 h. […] The estrone concentration in each of the samples was measured at 450 nm using a Synergy/HTX multimode reader (Bio-Tek Instruments Inc., VT, USA) with an estrone ELISA kit (Abnova, CA, USA), and the cell viability was measured using a CCK-8 assay (Dojindo Laboratories, Tokyo, JPN).
Additionally, IC50 values were calculated by sigmoidal dose-response curve fitting (variable slope) using PRISM software.

On to `O=C/C=C/c1ccccc1` [Cinnamaldehyde (4), cinnamaldehyde], for which the 50% inhibitory concentration (IC50) on aromatase [1] (maximum con. 10 mM) is greater than 10000 µM. `O=C(O)/C=C/c1ccccc1` [Cinnamic acid (3), cinnamic acid] returned a 50% inhibitory concentration (IC50) at aromatase [1] (maximum con. 10 mM) greater than 10000 µM. For the molecule `O=c1ccc2ccccc2o1` [Coumarin (2), coumarin], the 50% inhibitory concentration (IC50) against aromatase [1] (maximum con. 10 mM) is greater than 10000 µM.

In the case of `CN[C@@H](C)[C@H](O)c1ccccc1` [Ephedrine (1), ephedrine], on aromatase [1] (maximum con. 10 mM), the concentration for half-maximal inhibition (IC50) is greater than 10000 µM.

For `CC1(C)[C@@H](O[C@H]2O[C@H](C(=O)O)[C@@H](O)[C@H](O)[C@H]2O[C@@H]2O[C@H](C(=O)O)[C@@H](O)[C@H](O)[C@H]2O)CC[C@]2(C)[C@H]3C(=O)C=C4[C@@H]5C[C@@](C)(C(=O)O)CC[C@]5(C)CC[C@@]4(C)[C@]3(C)CC[C@@H]12` [Glycyrrhizin (8), glycyrrhizin], the IC50 against aromatase [1] (maximum con. 10 mM) is greater than 10000 µM. Take `O=C1CC(c2ccc(O)cc2)Oc2cc(O)ccc21` (centres unmarked) [Liquiritigenin (7), liquiritigenin]: the IC50 on aromatase [2] was 1410 µM; on aromatase [1] (maximum con. 10 mM), 1610 µM. On to `O=C1C[C@@H](c2ccc(O[C@@H]3O[C@H](CO)[C@@H](O)[C@H](O)[C@H]3O)cc2)Oc2cc(O)ccc21` [Liquiritin (5), liquiritin], for which, on aromatase [1] (human CYP19 Supersomes), half-maximal inhibition (IC50) required 530 µM.
